Patent US11778995B2, “Genetically modified non-human animals and methods of use thereof” (Regeneron Pharmaceuticals, Inc., priority 2012, dated 2023)

Test system: INA-6 cells
Test: μCT analysis of murine femurs after treatment of INA-6-engrafted mice with anti-myeloma drugs
Assay type: in vivo, mouse
Conditions: Rag2−/−Il2rgnullIl6h/hhSIRPa+ mice engrafted with 5×10^5 intrafemorally injected INA-6 cells, treated biweekly, femurs analyzed after four weeks, compared to untreated mice
Text: FIG. 7 is a graph depicting the results of μCT analysis of murine femurs after treatment with anti-myeloma drugs. Rag2^−/−Il2rg^nullIl6^h/hhSIRPa+ were engrafted with 5×10^5 intrafemorally injected INA-6 cells and treated biweekly with Velcade® or Zometa®, respectively. After four weeks, mice were sacrificed and femurs were fixed in 70% ethanol for μCT analysis. Trabecular bone and tissue volumes were quantified to calculate the ratio between bone to tissue volume.
Transplantation of cells. For intrafemoral transplantation of INA6 cells, Rag2^−/−Il2rg^null Il6^h/hhSIRPa^+ mice were irradiated twice with 200 rad from an X-ray source.
Indicated amounts of cells were then transplanted into the femur of recipient mice. Briefly, mice were anaesthetized using Ketamine/Xylazine and a hole was drilled into the patellar surface of the femur using a 26 gauge needle. The cells were then slowly injected in a volume of 20 μl using a 27 gauge needle. […]
μCT. Femur morphometry was quantified using cone-beam microfocus x-ray computed tomography (μCT40; ScancoMedicalAG). […]
Therefore, it was next examined whether transplantation of the tumor cell line in its natural microenvironment is able to reproduce the pathology typically associated with human MM. […] Specifically, the loss of trabecular bone mass was observed by histology, which was quantified by μCT. […]

## O=P(O)(O)C(O)(Cn1ccnc1)P(=O)(O)O [Zometa]
  bone resorption as quantified by μCT (ratio between bone to tissue volume): able to reduce bone resorption
